# From patent US10813911B2, “Methods of treating and/or preventing chronic obstructive pulmonary disease” (UNIVERSITE DE BORDEAUX, priority 2015, dated 2020)
# Experiments:
# Assay type in all cases: cell-based, human
# [1] = test system: fibrocytes obtained from exacerbating COPD patients; assay: plasma-induced fibrocyte migration, modified Boyden chamber assay
# Experimental: (§1) Purification of nonadherent non-T (NANT) cells was performed. Briefly, peripheral blood mononuclear cells (PBMC) were separated from whole blood by Ficoll-Hypaque density gradient centrifugation. After the first centrifugation at 150 g for 15 min, the top plasma layer was harvested and kept at −80° C. for further analysis. Mononuclear cells at the interface were harvested, washed once with 1×PBS. Erythrocyte lysis was performed by adding 20 ml of hypotonic 0.2% NaCl solution during 30s, followed by adding 20 ml of 1.6% NaCl to end with an isotonic solution. Mononuclear cells were again washed with 1×PBS, resuspended in Dulbecco's modified Eagle medium (DMEM), 4.5 g/l glucose, L-glutamine, supplemented with 20% fetal bovine serum (FBS), penicillin/streptomycin and MEM non essential amino acid and incubated 1 h at 37° C. The non-adherent mononuclear cell fraction was taken and washed in cold 1×PBS 0.5% BSA, 2 mM EDTA. T-cells were further depleted with anti-CD3 monoclonal antibody (Miltenyi Biotech). At least 0.2×10^6 nonadherent non-T (NANT) cells were distributed in each FACS tube and fixed overnight with Cytofix/Cytoperm (eBioscience).
# (§2) Fibrocyte migration was assessed using a modified Boyden chamber assay. The transwell inserts (pore size 8 μm) and the wells were coated for 1 h at room temperature with poly-lysine-ethylene glycol (PEG-PLL, Susos) to prevent cell adhesion. The inserts and the wells were rinsed with PBS. 0,3.10^6 nonadherent non-T (NANT) cells resuspended in 0.2 ml […] DMEM, 4.5 g/l glucose, L-glutamine, supplemented with ITS, penicillin/streptomycin and MEM non essential amino acid were added to the upper compartment of each well. When indicated, NANT cells were pretreated for 1 h at 37° by 25 μg/ml plerixafor (Sigma-Aldrich) or 10 μM SB 328437 (R&D Systems) before being added to the upper compartment. Recombinant human CXCL12 (25 ng/ml to 200 ng/ml; R&D Systems), recombinant human CCL11 (25 ng/ml to 200 ng/ml; R&D Systems) or plasma (50% dilution) extracted from blood coming from COPD V1 patient or control subject was added to the bottom compartment of each well. After about 12 h, the content of bottom compartment was removed to assess fibrocyte migration by flow cytometry using double labeling CD45-collagen I. To obtain absolute values of migratory cells, flow cytometric counts for each condition were obtained during a constant predetermined time period (1 min). The fraction of migratory fibrocytes was defined by the ratio between the number CD45+coll I+ cells counted in the bottom chamber divided by the number of CD45+coll I+ cells added in the upper compartment. These values were normalized to the fraction of migratory fibrocytes obtained in the basal condition (medium only).
# [2] = test system: fibrocytes obtained from normal subjects; assay: as above
# Experimental: as §1, §2
# fibrocytes = assay: fibrocyte migration in response to recombinant chemokine (CXCL12, CCL11), modified Boyden chamber assay
# Experimental: as §1
# Fibrocyte migration was assessed using a modified Boyden chamber assay. The transwell inserts (pore size 8 μm) and the wells were coated for 1 h at room temperature with poly-lysine-ethylene glycol (PEG-PLL, Susos) to prevent cell adhesion. The inserts and the wells were rinsed with PBS. 0,3.10^6 nonadherent non-T (NANT) cells resuspended in 0.2 ml […] DMEM, 4.5 g/l glucose, L-glutamine, supplemented with ITS, penicillin/streptomycin and MEM non essential amino acid were added to the upper compartment of each well. […] The fraction of migratory fibrocytes was defined by the ratio between the number CD45+coll I+ cells counted in the bottom chamber divided by the number of CD45+coll I+ cells added in the upper compartment. […]
compound,measurement,setting,value
c1cc(CN2CCCNCCNCCCNCC2)ccc1CN1CCCNCCNCCCNCC1 [Plerixafor],plasma-induced recruitment of fibrocytes,"[1]; plasma of exacerbating COPD patients (50% dilution), cells pretreated 1 h with 25 μg/ml plerixafor, about 12 h, FIG. 5A",significant reduction
same,plasma-induced migration of fibrocytes,"[2]; fibrocytes from normal (control) subjects, plasma of exacerbating COPD patients (50% dilution), cells pretreated 1 h with 25 μg/ml plerixafor, about 12 h, FIG. 5A",no significant reduction
same,fibrocyte migration in response to CXCL12 in presence of antagonist,"fibrocytes; CXCL12 alpha-induced migration, cells pretreated 1 h with 25 μg/ml plerixafor, FIG. 5D",completely abolished
"COC(=O)[C@H](Cc1ccc([N+](=O)[O-])cc1)NC(=O)c1ccc2ccccc2c1 [SB 328437, (S)-methyl-2-naphthoylamino-3-(4-nitrophenyl) propionate]",plasma-induced migration of fibrocytes,"[1]; plasma of exacerbating COPD patients, cells pretreated 1 h with 10 μM SB 328437, Figure E3A (FIG. 8A)",not affected
same,plasma-induced migration of fibrocytes,"[2]; fibrocytes from control subjects, plasma of exacerbating COPD patients, cells pretreated 1 h with 10 μM SB 328437, Figure E3A (FIG. 8A)",not affected
"CXCL12 alpha: recombinant human CXCL12 (R&D Systems), chemokine ligand of CXCR4",migration of fibrocytes from exacerbating COPD patient compared to fibrocytes from control subjects,"fibrocytes; 100 ng/ml chemokine, FIG. 5C",significantly higher migration
same,migratory response of fibrocytes to increasing concentrations of chemokine,"fibrocytes; recombinant human chemokine 25 ng/ml to 200 ng/ml in bottom compartment, about 12 h, FIG. 5C, Figure E3C",induced a significant fibrocytes migration in a dose-dependent manner
